Assay results: patent US6562620B2, “Medium to promote islet cell survival” (McGill University, priority 1997, dated 2003)

Tests used:
islets = test: Cell death detection ELISA (DNA fragmentation) of cultured islets; format: cell-based, Syrian golden hamsters; settings: 3 days serum then 9 days in 25% DCM or 34 ng/ml IGF-II; mean±SEM, n=6; FIG. 10
Method: Three experimental groups were designed for this study: Group 1 (control), with 100 islets per culture flask; Group 2 (islets plus ducts), with 100 islets plus 80 ducts per flask; and Group 3 (islets in 25% DCM), with 100 islets per flask.
All tissues were embedded in rat tail collagen and incubated in a humidified atmosphere of 95% air, 5% CO2 at 37° C. The baseline medium for all groups was DMEM/F12, supplemented with 10% NuSerum for three days at the start of the culture period, followed by 9 days of serum-free incubation. The medium was changed every other day.
After a 12 day incubation period, the media was removed and 3 ml of collagenase XI (0.25 mg/ml) was added to each flask for 40 min. The islets were hand-picked and washed three times in Hank's buffered salt solution (HBSS, Gibco, Montreal, Quebec, Canada). The presence of DNA fragmentation, a characteristic feature of apoptosis was determined using a cell death detection ELISA (Boehringer Mannheim, Laval, Quebec). The results were expressed as absorbance at 405 nm and corrected for total DNA content. DNA (μg) was measured by fluorometry using disbenzimidazole (Hoechst 33258, Sigma, Montreal, Quebec) as described (Labarca & Pagen, 1987, Analytical Biochemistry 102:44-52).
The islets were embedded in rat tail collagen and cultured in DMEM/F12 supplemented with 10% NuSerum. […]

p38 = p38 activation in canine islets (Western blot); format: cell-based; settings: collagen 400 μg/ml
Source text: (§1) The former two pathways are known to be associated with the induction of the apoptotic program, while the latter may be protective.
Signaling through the p38 MAP kinase is one pathway whose downstream effectors have been implicated in […].
In addition to growth factors, evidence is provided for the beneficial effect of matrix molecules, e.g. fibronectin for human islets, and collagen for canine islets (FIGS. 4 and 5) The data for p38 activation and its modulation by collagen represents the effect of 200 μg/ml of collagen type 1. Not shown, is that collagen in a concentration of 400 μg/ml will decrease p38 activation by over 50%.

erk1 and erk2 = erk1 and erk2 activation in isolated islets; format: cell-based; settings: human islets; FIG. 6
Source text: as §1
Signalling through erk has been associated with cell differentiation and cell survival (FIG. 6).

Substance | effect on erk1 and erk2 activation (erk1 and erk2) | other results
IGF-II: insulin-like growth factor II, growth factor added at 34 ng/ml | – | cell death ELISA (DNA fragmentation), IGF-II study (islets): 2.5 ± 1.0
collagen | – | decrease of p38 activation (p38): over 50%
insulin | positive effect | –
IGF-I: insulin-like growth factor-1 | positive effect | –
